The results in this text go back to US20170088520A1, “DEUBIQUITINASE INHIBITORS” (PharmAkea, Inc., priority 2014, published 2017).

In assay [1] the test system is MM.1S myeloma tumor cells. Put plainly: In vivo tumor growth assay (xenograft model). As to conditions: SCID Beige mice injected with MM.1S myeloma tumor cells; 15 mpk three times per week. The protocol:
Example B-3: In Vivo Tumor Growth Assay
A xenograft model is used to test efficacy of compounds in inhibiting tumor growth. Briefly, 1×10^6-2×10^7 tumor cell suspensions (Z138, A375, MM.1S, VCaP) are injected subcutaneously into the flank regions of mice (SCID, NSG, nude) in an equal volume of matrigel. Tumor volumes are measured using calipers and when the tumor volumes are ˜100 mm^3, test compound is administered every 1-3 days by oral gavage or by injection (intraperitoneal, intravenous, subcutaneous) until tumor volumes of the vehicle treated animals are ˜1000-2000 mm^3. Inhibition of primary tumor growth is evident as a significant decrease in tumor volume relative to the vehicle treated mice.
Following the above protocol using SCID Beige mice injected with MM.1S myeloma tumor cells and dosing with Compound 74 at 15 mpk three times per week, an approximately 50% reduction in tumor volume was observed

The test system of assay [2] is Mcl-1 expression in cells (NCI-H929, Z138, MM.1S, A-375). Put plainly: Analysis of Mcl-1 expression by Western blotting. It counts as cell-based. The following applies: compound tested at 5 μM; Western blot. An outline of the steps: (§1)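 NCI-H929, Z138, MM.1S and A-375 cells were treated with compounds at 5 μM, and lysates were Western blotted with anti-Mcl-1 and anti-PARP antibodies, quantified by infrared fluorescence. Activity is a significant drop in Mcl-1 and the appearance of cleaved PARP, each relative to vehicle-treated cells.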

The subject of assay [3] is PARP cleavage in cells (NCI-H929, Z138, MM.1S, A-375). As to the kind of experiment: Analysis of PARP cleavage by Western blotting. It is filed as cell-based. As to conditions: compound tested at 5 μM; Western blot. The essentials: as §1
A general note: A western blot detects proteins with antibodies after separation by electrophoresis.

The target in assay [4] is T1, DUB activity in cells (NCI-H929, Z138, MM.1S, A375) (Homo sapiens, UniProt Q93008).
T1 construct: endogenous in cells; host or cells: NCI-H929, Z138, MM.1S, A375
T1 sequence (Q93008 whole entry): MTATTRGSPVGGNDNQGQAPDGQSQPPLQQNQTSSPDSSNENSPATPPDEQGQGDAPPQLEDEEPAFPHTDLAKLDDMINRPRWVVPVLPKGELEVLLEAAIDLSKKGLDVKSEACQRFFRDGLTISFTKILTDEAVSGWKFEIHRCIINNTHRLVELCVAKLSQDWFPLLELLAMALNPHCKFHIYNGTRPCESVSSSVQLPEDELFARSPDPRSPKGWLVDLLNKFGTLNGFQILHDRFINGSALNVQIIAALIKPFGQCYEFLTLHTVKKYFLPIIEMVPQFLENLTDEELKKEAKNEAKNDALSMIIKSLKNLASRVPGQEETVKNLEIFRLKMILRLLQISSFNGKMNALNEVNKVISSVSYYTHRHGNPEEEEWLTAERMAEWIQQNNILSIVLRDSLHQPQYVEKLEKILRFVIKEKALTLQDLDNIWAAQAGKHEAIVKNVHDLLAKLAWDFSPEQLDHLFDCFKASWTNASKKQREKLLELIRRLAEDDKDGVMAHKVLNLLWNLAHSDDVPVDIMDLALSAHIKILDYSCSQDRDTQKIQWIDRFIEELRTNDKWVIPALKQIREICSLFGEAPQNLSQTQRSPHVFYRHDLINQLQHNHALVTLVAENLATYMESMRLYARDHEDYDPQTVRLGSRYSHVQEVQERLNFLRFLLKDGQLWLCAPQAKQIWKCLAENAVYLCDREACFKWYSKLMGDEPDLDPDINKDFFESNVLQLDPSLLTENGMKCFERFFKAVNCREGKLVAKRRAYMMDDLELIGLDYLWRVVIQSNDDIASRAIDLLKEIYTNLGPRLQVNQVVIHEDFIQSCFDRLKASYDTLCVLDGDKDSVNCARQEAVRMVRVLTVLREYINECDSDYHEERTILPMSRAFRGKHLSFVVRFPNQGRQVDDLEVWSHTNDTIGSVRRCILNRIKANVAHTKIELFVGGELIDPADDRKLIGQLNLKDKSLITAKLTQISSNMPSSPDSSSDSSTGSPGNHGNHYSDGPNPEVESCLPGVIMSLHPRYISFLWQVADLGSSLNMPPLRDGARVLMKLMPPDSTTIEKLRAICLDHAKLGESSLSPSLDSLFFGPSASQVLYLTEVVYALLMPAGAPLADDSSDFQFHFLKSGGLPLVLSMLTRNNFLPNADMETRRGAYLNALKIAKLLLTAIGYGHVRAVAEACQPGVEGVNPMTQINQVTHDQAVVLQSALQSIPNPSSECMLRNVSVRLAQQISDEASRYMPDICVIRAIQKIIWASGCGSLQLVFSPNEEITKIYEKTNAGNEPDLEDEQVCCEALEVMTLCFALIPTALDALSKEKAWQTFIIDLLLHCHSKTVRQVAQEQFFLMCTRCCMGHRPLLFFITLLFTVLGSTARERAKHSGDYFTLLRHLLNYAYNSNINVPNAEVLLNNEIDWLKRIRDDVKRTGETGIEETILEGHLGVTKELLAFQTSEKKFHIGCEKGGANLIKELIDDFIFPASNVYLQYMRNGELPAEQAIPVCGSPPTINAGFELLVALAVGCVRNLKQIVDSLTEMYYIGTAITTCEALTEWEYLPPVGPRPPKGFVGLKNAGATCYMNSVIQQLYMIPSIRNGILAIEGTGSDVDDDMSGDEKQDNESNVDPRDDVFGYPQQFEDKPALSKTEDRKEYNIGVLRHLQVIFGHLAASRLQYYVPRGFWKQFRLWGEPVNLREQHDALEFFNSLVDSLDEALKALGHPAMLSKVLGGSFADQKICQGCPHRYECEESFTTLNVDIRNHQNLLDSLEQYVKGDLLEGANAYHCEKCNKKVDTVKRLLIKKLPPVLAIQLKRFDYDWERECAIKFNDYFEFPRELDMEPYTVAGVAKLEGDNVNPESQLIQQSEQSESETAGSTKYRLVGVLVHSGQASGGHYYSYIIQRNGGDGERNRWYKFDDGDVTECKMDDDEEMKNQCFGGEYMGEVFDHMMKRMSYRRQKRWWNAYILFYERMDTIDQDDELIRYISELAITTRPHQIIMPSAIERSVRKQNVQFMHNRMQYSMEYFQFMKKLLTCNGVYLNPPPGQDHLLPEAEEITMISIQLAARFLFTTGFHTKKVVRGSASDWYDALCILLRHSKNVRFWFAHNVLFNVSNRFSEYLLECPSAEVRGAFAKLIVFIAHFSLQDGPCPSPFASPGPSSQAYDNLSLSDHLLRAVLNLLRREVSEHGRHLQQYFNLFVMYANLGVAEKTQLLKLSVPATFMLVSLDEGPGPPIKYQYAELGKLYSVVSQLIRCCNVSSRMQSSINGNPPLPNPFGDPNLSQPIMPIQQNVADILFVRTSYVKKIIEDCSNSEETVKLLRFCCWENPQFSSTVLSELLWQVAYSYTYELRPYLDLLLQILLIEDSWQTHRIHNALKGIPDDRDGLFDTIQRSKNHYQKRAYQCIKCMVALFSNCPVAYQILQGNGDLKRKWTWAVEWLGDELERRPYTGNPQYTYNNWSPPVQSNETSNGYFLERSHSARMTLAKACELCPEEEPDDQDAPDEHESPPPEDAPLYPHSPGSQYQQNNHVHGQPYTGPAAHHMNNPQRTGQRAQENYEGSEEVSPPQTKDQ
Put plainly: HA-Ubiquitin-Vinylsulfone (HA-Ub-VS) cell labeling assay. It is filed as cell-based. The following applies: compound tested at 5 μM; HA-Ub-VS labeling of USP9x in cells. An outline of the steps: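 NCI-H929, Z138, MM.1S or A375 cells (1–2×10^6) treated 2–6 h at 37 °C with compound in 0.5% DMSO, here 5 μM. Lysates labeled with HA-Ub-VS for 15–60 min at 37 °C. Labeled DUBs resolved by SDS-PAGE and quantified by anti-HA and anti-β-actin immunoblot with infrared detection.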

As to `N#C/C(=C\c1cccc(Br)n1)C(=O)NC1(c2ccc(-c3cccc(C(=O)O)c3)cc2)CCCC1` [Compound 74, (E)-4′-(1-(3-(6-bromopyridin-2-yl)-2-cyanoacrylamido)cyclopentyl)-[1,1′-biphenyl]-3-carboxylic acid], in assay [1], the “reduction in tumor volume” value is on record as “approximately 50%”. In addition, the inhibition at 5 µM in assay [2] and in assay [4] was 50 to 75% throughout. In addition, the “PARP cleavage % Inhibition” value in assay [3] was “A (A is ≧75% inhibition)”.

As to `N#C/C(=C\c1cccc(C2CC2)n1)C(=O)NC1(c2ccc(-c3cccc(C(=O)O)c3)cc2)CCCC1` [Compound 82, (E)-4′-(1-(2-cyano-3-(6-cyclopropylpyridin-2-yl)acrylamido)cyclopentyl)-[1,1′-biphenyl]-3-carboxylic acid], the inhibition at 5 µM was 50 to 75% in assay [2] and less than 25% in assay [4]. Further, the “PARP cleavage % Inhibition” value in assay [3] is on record as “A (A is ≧75% inhibition)”.

For the molecule `N#C/C(=C\c1cccc(N2CCCC2)n1)C(=O)NC1(c2ccccc2)CCCC1` [Compound 83, (E)-2-cyano-N-(1-phenylcyclopentyl)-3-(6-(pyrrolidin-1-yl)pyridin-2-yl) acrylamide], the inhibition at 5 µM in assay [2] and in assay [4] was less than 25% each time. Also, the “PARP cleavage % Inhibition” value in assay [3] is “D (D is <25% inhibition)”.

For the molecule `CCCCCCCCCCCCCC(=O)OCc1ccc(C2(NC(=O)/C(C#N)=C/c3cccc(Br)n3)CCCC2)cc1` [Compound 84, (E)-4-(1-(3-(6-bromopyridin-2-yl)-2-cyanoacrylamido)cyclopentyl)benzyl tetradecanoate], the inhibition at 5 µM in assay [2] and in assay [4] was less than 25% each time. Further, in assay [3], the “PARP cleavage % Inhibition” value is “D (D is <25% inhibition)”.

Take `N#C/C(=C\c1cccc(Br)n1)C(=O)NC1(c2ccc(COC(=O)CCCCCN3C(=O)C=CC3=O)cc2)CCCC1` [Compound 85, (E)-4-(1-(3-(6-bromopyridin-2-yl)-2-cyanoacrylamido)cyclopentyl)benzyl 6-(2,5-dioxo-2,5-dihydro-1H-pyrrol-1-yl)hexanoate]: the inhibition at 5 µM was less than 25% in assay [2] and 25 to 50% in assay [4]. The “PARP cleavage % Inhibition” value in assay [3] is recorded as “C (C is 25% to 50% inhibition)”.

As for `N#C/C(=C\c1cccc(Br)n1)C(=O)NC1(c2ccc(CO)cc2)CCCC1` [Compound 86, (E)-3-(6-bromopyridin-2-yl)-2-cyano-N-(1-(4-(hydroxymethyl)phenyl)cyclopentyl)acrylamide], the inhibition at 5 µM was less than 25% in assay [2] and 25 to 50% in assay [4]. The “PARP cleavage % Inhibition” value in assay [3] is listed as “B (B is 50% to 75% inhibition)”.

Take `CC(=O)OCc1ccc(C2(NC(=O)/C(C#N)=C/c3cccc(Br)n3)CCCC2)cc1` [Compound 87, (E)-4-(1-(3-(6-bromopyridin-2-yl)-2-cyanoacrylamido)cyclopentyl)benzyl acetate]: the inhibition at 5 µM in assay [2] lay in the range of 50 to 75%; in assay [4] it was 25 to 50%. For the same molecule, the “PARP cleavage % Inhibition” value in assay [3] is listed as “A (A is ≧75% inhibition)”.

Take `CC(C)(C)OC(=O)COc1ccc(C2(NC(=O)/C(C#N)=C/c3cccc(Br)n3)CCCC2)cc1` [Compound 88, (E)-tert-butyl 2-(4-(1-(3-(6-bromopyridin-2-yl)-2-cyanoacrylamido)cyclopentyl)phenoxy)acetate]: the inhibition at 5 µM in assay [2] and in assay [4] was not below 75% throughout. Besides, in assay [3], the “PARP cleavage % Inhibition” value was “A (A is ≧75% inhibition)”.

Turning to `N#C/C(=C\c1cccc(-c2cccc(C(=O)O)c2F)n1)C(=O)NC1(c2ccccc2)CCCC1` [Compound 89, (E)-3-(6-(2-cyano-3-oxo-3-((1-phenylcyclopentyl)amino)prop-1-en-1-yl)pyridin-2-yl)-2-fluorobenzoic acid], the inhibition at 5 µM in assay [2] and in assay [4] was less than 25% throughout. Besides, the “PARP cleavage % Inhibition” value in assay [3] was “C (C is 25% to 50% inhibition)”.

As for `N#C/C(=C\c1cccc(Br)n1)C(=O)NC1(c2ccc(-c3ccc(CC(=O)O)cc3)cc2)CCCC1` [Compound 90, (E)-2-(4′-(1-(3-(6-bromopyridin-2-yl)-2-cyanoacrylamido)cyclopentyl)-[1,1′-biphenyl]-4-yl)acetic acid], the inhibition at 5 µM in assay [2] was 25 to 50%; in assay [4] it was less than 25%. Further, in assay [3], the “PARP cleavage % Inhibition” value was “D (D is <25% inhibition)”.

Consider `N#C/C(=C\c1cccc(Br)n1)C(=O)NC1(c2ccc(-c3ccc(C(=O)O)cc3)cc2)CCCC1` [Compound 91, (E)-4′-(1-(3-(6-bromopyridin-2-yl)-2-cyanoacrylamido)cyclopentyl)-[1,1′-biphenyl]-4-carboxylic acid], for which the inhibition at 5 µM in assay [2] was not below 75%; in assay [4], 25 to 50%. In assay [3], the “PARP cleavage % Inhibition” value is given as “A (A is ≧75% inhibition)”.

For `N#C/C(=C\c1cccc(C2CC2)n1)C(=O)NC1(c2ccc(-c3ccc(C(=O)O)cc3)cc2)CCCC1` [Compound 92, (E)-4′-(1-(2-cyano-3-(6-cyclopropylpyridin-2-yl)acrylamido)cyclopentyl)-[1,1′-biphenyl]-4-carboxylic acid], the inhibition at 5 µM in assay [2] was not below 75%; in assay [4], 25 to 50%. In addition, the “PARP cleavage % Inhibition” value in assay [3] is given as “A (A is ≧75% inhibition)”.

For `N#C/C(=C\c1cccc(C2CC2)n1)C(=O)NC1(c2ccc(-c3ccc(CC(=O)O)cc3)cc2)CCCC1` [Compound 93, (E)-2-(4′-(1-(2-cyano-3-(6-cyclopropylpyridin-2-yl)acrylamido)cyclopentyl)-[1,1′-biphenyl]-4-yl)acetic acid], the figures for the inhibition at 5 µM in assay [2] and in assay [4] were not below 75% and 25 to 50%, respectively. For the same molecule, the “PARP cleavage % Inhibition” value in assay [3] is “A (A is ≧75% inhibition)”.

For `N#C/C(=C\c1cccc(Br)n1)C(=O)NC1(c2ccc(-c3cccc(C(=O)NS(=O)(=O)c4ccccc4)c3)cc2)CCCC1` [Compound 94, (E)-4′-(1-(3-(6-bromopyridin-2-yl)-2-cyanoacrylamido)cyclopentyl)-N-(phenylsulfonyl)-[1,1′-biphenyl]-3-carboxamide], the inhibition at 5 µM in assay [2] was 25 to 50%; in assay [4], less than 25%. For the same molecule, the “PARP cleavage % Inhibition” value in assay [3] is reported as “A (A is ≧75% inhibition)”.

In the case of `N#C/C(=C\c1cccc(Br)n1)C(=O)NC1(c2ccc(-c3ccc4[nH]ncc4c3)cc2)CCCC1` [Compound 95, (E)-N-(1-(4-(1H-indazol-5-yl)phenyl)cyclopentyl)-3-(6-bromopyridin-2-yl)-2-cyanoacrylamide], the inhibition at 5 µM in assay [2] and in assay [4] was less than 25% throughout. For the same molecule, the “PARP cleavage % Inhibition” value in assay [3] was “D (D is <25% inhibition)”.

`N#C/C(=C\c1cccc(Br)n1)C(=O)NC1(c2ccc(-c3ccc4[nH]ccc4c3)cc2)CCCC1` [Compound 96, (E)-N-(1-(4-(1H-indol-5-yl)phenyl)cyclopentyl)-3-(6-bromopyridin-2-yl)-2-cyanoacrylamide]: the inhibition at 5 µM in assay [2] and in assay [4] was 50 to 75% each time. Further, the “PARP cleavage % Inhibition” value in assay [3] is “A (A is ≧75% inhibition)”.

In the case of `CCOC(=O)CN1CCc2ccc(-c3cccc(/C=C(\C#N)C(=O)NC4(c5ccccc5)CCCC4)n3)cc2C1` [Compound 97, (E)-ethyl 2-(7-(6-(2-cyano-3-oxo-3-((1-phenylcyclopentyl)amino)prop-1-en-1-yl)pyridin-2-yl)-3,4-dihydroisoquinolin-2(1H)-yl)acetate], the inhibition at 5 µM was less than 25% in assay [2] and 25 to 50% in assay [4]. Also, the “PARP cleavage % Inhibition” value in assay [3] is recorded as “B (B is 50% to 75% inhibition)”.

`Cc1ccc(-c2ccc(C3(NC(=O)/C(C#N)=C/c4cccc(Br)n4)CCCC3)cc2)cc1CC(=O)O` [Compound 98, (E)-2-(4′-(1-(3-(6-bromopyridin-2-yl)-2-cyanoacrylamido)cyclopentyl)-4-methyl-[1,1′-biphenyl]-3-yl)acetic acid]: the inhibition at 5 µM in assay [2] and in assay [4] was less than 25% throughout. The “PARP cleavage % Inhibition” value in assay [3] was “D (D is <25% inhibition)”.

On to `N#C/C(=C\c1cccc(C2CC2)n1)C(=O)NC1(c2ccc(-c3ccc4[nH]ccc4c3)cc2)CCCC1` [Compound 99, (E)-N-(1-(4-(1H-indol-5-yl)phenyl)cyclopentyl)-2-cyano-3-(6-cyclopropylpyridin-2-yl)acrylamide], for which the figures for the inhibition at 5 µM in assay [2] and in assay [4] were less than 25% and 25 to 50%, respectively. Further, the “PARP cleavage % Inhibition” value in assay [3] is “C (C is 25% to 50% inhibition)”.

Usually inhibition stands for the change of the read-out against control, counted positive when it falls. Low readings indicate a weak effect, high ones a strong effect.
